Several values for one entry are separate records, joined by “and”; a condition that tells them apart may be missing. Equal values may be shown once.
Tests used:
Aspergillus niger ISI 3 [1] = experiment: Minimum bactericidal concentration (MBC); type: cell-based
Excerpt: Even when no growth is detectable in the MIC tests, it is possible that the microorganisms have survived the treatment i.e., they are not killed but just prevented from growing. In order to test for survivors, MBC plates were subsequently made from the MIC plates.

[2] = test system: Pseudomonas aeruginosa, ATCC 10145; experiment: PT6 screening, in-can preservation of acrylic paint (ATP, aerobic and anaerobic growth on agar plate); type: cell-based
Experimental: The microbial activity in relation to in-can preservation of paint was tested using three methods: ATP measurement, Aerobic growth on agar plate and Anaerobic growth on agar plate in low-air conditions. […] Furthermore, no significant dependence on concentration was shown in these specific tests. Specific about the ATP measurements: test and method developed by Luminultra. A sample is taken from the test paint at a given time and the total amount of ATP is measured. Total ATP amount are measured at Day 7 and 30. After every ATP measurement, streaking of test material on agar plates has been performed. Growth test in aerobic and anaerobic environment are running in 1 and 14 days, respectively. Test organism: Pseudomonas aeruginosa, ATCC 10145 [table] The commercial biocide used for the results listed in Table VIII is Vinkocide CMIK R. Acrylic paint is standard EN152 (modified without PT6 biocide). P. aeruginosa are inoculated in 200 μl concentration to paint sample size of 140 ml in a sterile “paint can-shape” container. Shark Solution candidate A and the commercial biocide are added to the standard paint and mixed in a shaker machine. Every matrix is tested in two replications (n=2) with an additional replication without inoculation of bacteria.

bacteria = experiment: Tap water and polluted water treated with NDBA: bacteria count and BSI; type: cell-based; details: 300 grams water, 32° C.
[3] = test system: Debaryomyces hansenii ISI 12; experiment: Minimal inhibitory concentration (MIC); type: cell-based
Experimental: (§1) Minimum inhibitory concentrations (MICs) are defined as the lowest concentration of an antimicrobial that will inhibit the visible growth of a microorganism after a standardized incubation. In the present study, MIC assay was performed by pipetting robot. The principle is that an indicator microorganism at a defined cell density is cultured with a range of concentrations of the test compound, one concentration pr, well in a row on the microtiter plate. For bacteria and yeasts the minimal inhibitory concentration was detected as no increase of optical density (OD), for moulds microtiter plates were read visually. Each indicator organism is tested in duplicate and the MIC is calculated as the average of the two determinations. The tested concentrations of the antimicrobial substances were 2-fold dilutions from 5%. All indicator organisms (see Table 2.) were pre-cultivated in a suitable growth medium and diluted in the same medium to give a final concentration in the assay of ˜1×10^3 cfu/ml. The microtiter plates were incubated under specific incubation conditions (see Table III). [table]

[4] = test system: Streptococcus termophilus ISI 1563; experiment: Minimal inhibitory concentration (MIC); type: cell-based
Experimental: as §1

[5] = test system: Candida albicans ISI 1226; experiment: Minimal inhibitory concentration (MIC); type: cell-based
Experimental: as §1

[6] = test system: Listeria monocytogenes ISI 22; experiment: Minimal inhibitory concentration (MIC); type: cell-based
Experimental: as §1

Bacillus cereus ISI 842 = experiment: Minimal inhibitory concentration (MIC); type: cell-based
Experimental: as §1

[7] = test system: Leuconostoc mesenteroides ISI 504; experiment: Minimal inhibitory concentration (MIC); type: cell-based
Experimental: as §1

Aspergillus niger ISI 3 [8] = experiment: Minimal inhibitory concentration (MIC); type: cell-based
Experimental: as §1

rat = experiment: LD50 (rat, oral); type: in vivo; details: extrapolated from rat LD50 4250 mg/kg
Coniophora puteana = experiment: Wood impregnation with 10 and 20% NBDA, 6 weeks of exposure; type: cell-based; details: for Corrected mass loss, Mean / Mass loss, Mean / Corrected mass loss / Mass loss: 6 weeks of exposure; for Corrected mass loss, Mean / Mass loss, Mean: mean of blocks; for Corrected mass loss / Mass loss: single blocks
Excerpt: Below table presents results from impregnation with 10 and 20% NBDA to water phase. It is expected that concentrations of up to at least 35% NBDA and/or APDEA and/or 2,2′-(octylimino)bisethanol are showing promising results.

## CCCCN(CCO)CCO [NBDA, N-butyldiethanolamine]
Aspergillus niger ISI 3 [1]
  MBC (%): 0.63%
[2]; 1, 2 and 5% NBDA
  anti-microbial potential in paint: reveal anti-microbial potentials
[2]; concentrations of 0.5%, 1%, 2%, and 5%
  effectiveness in in-can preservation of paints: effective against aerobic bacteria
bacteria; Polluted water + 0.5%
  BSI: 48
  bacteria count: 56.2
bacteria; Tapwater + 0.5%
  BSI: 56
  bacteria count: 7.35
[3]
  MIC (%): 1.25%
[3]; 0.02% NBDA
  MIC data (optical density): 1.027 and 1.215
[3]; 0.04% NBDA
  MIC data (optical density): 0.964 and 1.224
[3]; 0.08% NBDA
  MIC data (optical density): 0.974 and 1.114
[3]; 0.16% NBDA
  MIC data (optical density): 0.975 and 1.145
[3]; 0.31% NBDA
  MIC data (optical density): 0.877 and 0.973
[3]; 0.63% NBDA
  MIC data (optical density): 0.619 and 0.582
[3]; 1.25% NBDA
  MIC data (optical density): 0.047
[3]; 2.50% NBDA
  MIC data (optical density): 0.045 and 0.046
[3]; 5.00% NBDA
  MIC data (optical density): 0.044 and 0.043
[4]
  MIC (%): 0.63%
[4]; 0.02% NBDA
  MIC data (optical density): 0.57 and 0.515
[4]; 0.04% NBDA
  MIC data (optical density): 0.445 and 0.473
[4]; 0.08% NBDA
  MIC data (optical density): 0.431 and 0.462
[4]; 0.16% NBDA
  MIC data (optical density): 0.444 and 0.438
[4]; 0.31% NBDA
  MIC data (optical density): 0.115 and 0.108
[4]; 0.63% NBDA
  MIC data (optical density): 0.046 and 0.043
[4]; 1.25% NBDA
  MIC data (optical density): 0.044 and 0.045
[4]; 2.50% NBDA
  MIC data (optical density): 0.049
[4]; 5.00% NBDA
  MIC data (optical density): 0.041 and 0.042
[5]
  MIC (%): 0.63%
[5]; 0.02% NBDA
  MIC data (optical density): 1.272 and 1.291
[5]; 0.04% NBDA
  MIC data (optical density): 1.243 and 1.259
[5]; 0.08% NBDA
  MIC data (optical density): 1.223 and 1.256
[5]; 0.16% NBDA
  MIC data (optical density): 1.118 and 1.134
[5]; 0.31% NBDA
  MIC data (optical density): 0.886 and 0.984
[5]; 0.63% NBDA
  MIC data (optical density): 0.056
[5]; 1.25% NBDA
  MIC data (optical density): 0.051 and 0.050
[5]; 2.50% NBDA
  MIC data (optical density): 0.047 and 0.046
[5]; 5.00% NBDA
  MIC data (optical density): 0.042 and 0.044
[6]
  MIC (%): 1.25%
[6]; 0.02% NBDA
  MIC data (optical density): 1.182 and 1.216
[6]; 0.04% NBDA
  MIC data (optical density): 1.184 and 1.216
[6]; 0.08% NBDA
  MIC data (optical density): 1.165 and 1.119
[6]; 0.16% NBDA
  MIC data (optical density): 1.074 and 0.574
[6]; 0.31% NBDA
  MIC data (optical density): 1.027 and 0.645
[6]; 0.63% NBDA
  MIC data (optical density): 0.938 and 0.759
[6]; 1.25% NBDA
  MIC data (optical density): 0.047 and 0.048
[6]; 2.50% NBDA
  MIC data (optical density): 0.046 and 0.056
[6]; 5.00% NBDA
  MIC data (optical density): 0.045 and 0.056
Bacillus cereus ISI 842
  MIC (%): 1.25%
Bacillus cereus ISI 842; 0.02% NBDA
  MIC data (optical density): 0.797 and 0.933
Bacillus cereus ISI 842; 0.04% NBDA
  MIC data (optical density): 0.953 and 0.926
Bacillus cereus ISI 842; 0.08% NBDA
  MIC data (optical density): 0.880 and 0.764
Bacillus cereus ISI 842; 0.16% NBDA
  MIC data (optical density): 0.716 and 0.833
Bacillus cereus ISI 842; 0.31% NBDA
  MIC data (optical density): 0.811 and 0.739
Bacillus cereus ISI 842; 0.63% NBDA
  MIC data (optical density): 0.664 and 0.824
Bacillus cereus ISI 842; 1.25% NBDA
  MIC data (optical density): 0.108 and 0.143
Bacillus cereus ISI 842; 2.50% NBDA
  MIC data (optical density): 0.100 and 0.145
Bacillus cereus ISI 842; 5.00% NBDA
  MIC data (optical density): 0.087 and 0.120
[7]
  MIC (%): 0.31%
[7]; 0.02% NBDA
  MIC data (optical density): 1.025 and 0.943
[7]; 0.04% NBDA
  MIC data (optical density): 1.135 and 1.104
[7]; 0.08% NBDA
  MIC data (optical density): 1.005 and 1.027
[7]; 0.16% NBDA
  MIC data (optical density): 1.065 and 0.990
[7]; 0.31% NBDA
  MIC data (optical density): 0.051 and 0.052
[7]; 0.63% NBDA
  MIC data (optical density): 0.047 and 0.049
[7]; 1.25% NBDA
  MIC data (optical density): 0.046 and 0.047
[7]; 2.50% NBDA
  MIC data (optical density): 0.046
[7]; 5.00% NBDA
  MIC data (optical density): 0.044 and 0.041
Aspergillus niger ISI 3 [8]
  MIC (%): 0.63%
rat
  human consummation equivalent to LD50: 319 gram pr 75 kg
Coniophora puteana; impregnation with 10 and 20% NBDA to water phase
  wood protection at high concentrations: strong results
Coniophora puteana; solution conc. 10.00 % w/w
  Corrected mass loss, Mean: 0.3%
  Mass loss, Mean: −0.4%
  Corrected mass loss: −0.4% and 0.3% and 0.9% and 0.0% and 1.1% and −0.2% and −0.8%
  Mass loss: −0.9% and −0.2% and 0.4% and −0.5% and 0.6% and −0.7% and −1.3%
Coniophora puteana; solution conc. 20.00 % w/w
  Corrected mass loss, Mean: 0.0%
  Mass loss, Mean: −1.5%
  Corrected mass loss: 0.3% and −0.1% and −0.5% and −0.8% and −0.7% and −0.6%
  Mass loss: −0.7% and −1.1% and −1.6% and −1.8% and −1.7%
